Experimental findings from publication PMC6370829, “NADP^+ is an endogenous PARP inhibitor in DNA damage response and tumor suppression” (Nature Communications, 2019) are described below.

In assay [1] the target is T1, PARP10 (Homo sapiens, UniProt Q53GL7).
T1 construct: GST-PARP10
T1 sequence (Q53GL7 1-1025): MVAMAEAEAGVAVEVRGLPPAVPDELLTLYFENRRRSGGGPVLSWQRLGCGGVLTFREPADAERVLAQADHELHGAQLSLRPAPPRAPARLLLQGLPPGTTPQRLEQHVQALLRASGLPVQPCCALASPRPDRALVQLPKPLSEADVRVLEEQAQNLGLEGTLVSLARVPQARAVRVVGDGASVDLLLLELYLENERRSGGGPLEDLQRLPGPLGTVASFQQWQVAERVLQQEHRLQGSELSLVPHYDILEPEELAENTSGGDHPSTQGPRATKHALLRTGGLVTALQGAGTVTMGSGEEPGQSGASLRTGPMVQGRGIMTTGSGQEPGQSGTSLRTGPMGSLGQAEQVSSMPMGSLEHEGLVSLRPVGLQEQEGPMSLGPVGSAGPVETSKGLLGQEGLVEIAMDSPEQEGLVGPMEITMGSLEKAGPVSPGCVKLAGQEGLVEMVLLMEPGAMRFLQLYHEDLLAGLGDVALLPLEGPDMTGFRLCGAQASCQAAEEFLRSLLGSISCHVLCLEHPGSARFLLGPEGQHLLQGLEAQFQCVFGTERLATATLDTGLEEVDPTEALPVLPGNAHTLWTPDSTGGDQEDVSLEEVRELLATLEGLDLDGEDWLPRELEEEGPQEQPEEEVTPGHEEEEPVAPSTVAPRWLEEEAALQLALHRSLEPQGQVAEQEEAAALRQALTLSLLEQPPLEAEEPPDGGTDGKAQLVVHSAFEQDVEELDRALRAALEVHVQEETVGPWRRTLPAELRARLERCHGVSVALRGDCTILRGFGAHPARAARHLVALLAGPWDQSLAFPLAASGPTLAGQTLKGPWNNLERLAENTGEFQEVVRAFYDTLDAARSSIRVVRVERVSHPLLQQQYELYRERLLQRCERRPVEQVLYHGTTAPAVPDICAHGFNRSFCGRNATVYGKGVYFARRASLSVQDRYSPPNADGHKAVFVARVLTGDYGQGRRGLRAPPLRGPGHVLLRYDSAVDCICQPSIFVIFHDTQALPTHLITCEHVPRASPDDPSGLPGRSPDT
Briefly: […]NADP+ binding to immobilized protein (TLC); also inhibition of auto-MARylation.

The target of assay [2] is T2, PARP1 (Homo sapiens, UniProt P09874). The experiment in a line: ITC; also […]NADP+ pull-down binding and inhibition of auto-PARylation. More on the design: catalytic domain (GST-PARP1 CAT, aa. 662–1014) for ITC.
Target sequence in this assay (P09874 662-1014): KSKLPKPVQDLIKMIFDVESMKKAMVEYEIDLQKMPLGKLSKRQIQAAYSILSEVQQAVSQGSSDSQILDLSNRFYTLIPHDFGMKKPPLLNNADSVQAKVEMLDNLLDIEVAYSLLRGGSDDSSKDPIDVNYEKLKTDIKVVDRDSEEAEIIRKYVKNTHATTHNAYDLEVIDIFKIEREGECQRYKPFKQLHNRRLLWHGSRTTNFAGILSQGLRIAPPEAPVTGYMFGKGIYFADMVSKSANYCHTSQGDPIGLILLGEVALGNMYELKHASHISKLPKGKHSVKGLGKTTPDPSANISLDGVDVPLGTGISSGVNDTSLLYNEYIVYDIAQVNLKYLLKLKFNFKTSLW
For the next assay, the target named is T3, PARP2 (Homo sapiens, UniProt Q9UGN5).
T3 construct: HIS-PARP2
T3 sequence (Q9UGN5 whole entry): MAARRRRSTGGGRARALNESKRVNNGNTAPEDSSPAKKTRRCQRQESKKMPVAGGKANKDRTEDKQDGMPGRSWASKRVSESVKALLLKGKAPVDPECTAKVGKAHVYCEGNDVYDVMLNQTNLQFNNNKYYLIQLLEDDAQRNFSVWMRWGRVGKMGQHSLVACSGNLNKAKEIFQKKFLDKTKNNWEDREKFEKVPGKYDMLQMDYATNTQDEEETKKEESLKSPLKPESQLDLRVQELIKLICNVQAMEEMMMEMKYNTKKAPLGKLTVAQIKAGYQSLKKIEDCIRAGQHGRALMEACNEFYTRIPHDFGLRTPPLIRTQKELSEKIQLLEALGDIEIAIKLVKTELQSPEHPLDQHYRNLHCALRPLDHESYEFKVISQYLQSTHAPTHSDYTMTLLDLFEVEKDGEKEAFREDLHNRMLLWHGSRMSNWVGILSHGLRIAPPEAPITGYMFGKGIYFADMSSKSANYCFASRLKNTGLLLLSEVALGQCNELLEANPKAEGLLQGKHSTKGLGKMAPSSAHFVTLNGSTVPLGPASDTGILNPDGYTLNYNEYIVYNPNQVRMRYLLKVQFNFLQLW
The experiment in a line: […]NADP+ binding to immobilized protein (TLC); also inhibition of auto-PARylation.

In another assay the target is T4, NADK (Homo sapiens, UniProt O95544).
T4 construct: recombinant NADK
T4 sequence (O95544 1-446): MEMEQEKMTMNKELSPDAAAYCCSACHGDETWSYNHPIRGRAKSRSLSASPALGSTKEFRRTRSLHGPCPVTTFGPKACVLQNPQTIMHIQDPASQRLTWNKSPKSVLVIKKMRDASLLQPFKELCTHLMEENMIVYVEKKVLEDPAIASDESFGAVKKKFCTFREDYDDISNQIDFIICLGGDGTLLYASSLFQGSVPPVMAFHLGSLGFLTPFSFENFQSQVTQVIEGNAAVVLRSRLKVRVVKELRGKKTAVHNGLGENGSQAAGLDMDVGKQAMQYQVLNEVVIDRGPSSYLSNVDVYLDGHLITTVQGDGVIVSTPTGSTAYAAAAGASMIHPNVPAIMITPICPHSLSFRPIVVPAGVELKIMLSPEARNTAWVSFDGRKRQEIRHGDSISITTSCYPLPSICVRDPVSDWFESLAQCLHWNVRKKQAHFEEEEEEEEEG
The experiment in a line: recombinant enzyme reaction, product confirmed by mass spectrometry. Type of assay: biochemical.

The target in assay [3] is T2, PARP1. The experiment in a line: in vitro auto-PARylation, western blot and […]NAD+ autoradiography. Type of assay: biochemical. Details: HIS-PARP1.
Target sequence in this assay (P09874 2-1014): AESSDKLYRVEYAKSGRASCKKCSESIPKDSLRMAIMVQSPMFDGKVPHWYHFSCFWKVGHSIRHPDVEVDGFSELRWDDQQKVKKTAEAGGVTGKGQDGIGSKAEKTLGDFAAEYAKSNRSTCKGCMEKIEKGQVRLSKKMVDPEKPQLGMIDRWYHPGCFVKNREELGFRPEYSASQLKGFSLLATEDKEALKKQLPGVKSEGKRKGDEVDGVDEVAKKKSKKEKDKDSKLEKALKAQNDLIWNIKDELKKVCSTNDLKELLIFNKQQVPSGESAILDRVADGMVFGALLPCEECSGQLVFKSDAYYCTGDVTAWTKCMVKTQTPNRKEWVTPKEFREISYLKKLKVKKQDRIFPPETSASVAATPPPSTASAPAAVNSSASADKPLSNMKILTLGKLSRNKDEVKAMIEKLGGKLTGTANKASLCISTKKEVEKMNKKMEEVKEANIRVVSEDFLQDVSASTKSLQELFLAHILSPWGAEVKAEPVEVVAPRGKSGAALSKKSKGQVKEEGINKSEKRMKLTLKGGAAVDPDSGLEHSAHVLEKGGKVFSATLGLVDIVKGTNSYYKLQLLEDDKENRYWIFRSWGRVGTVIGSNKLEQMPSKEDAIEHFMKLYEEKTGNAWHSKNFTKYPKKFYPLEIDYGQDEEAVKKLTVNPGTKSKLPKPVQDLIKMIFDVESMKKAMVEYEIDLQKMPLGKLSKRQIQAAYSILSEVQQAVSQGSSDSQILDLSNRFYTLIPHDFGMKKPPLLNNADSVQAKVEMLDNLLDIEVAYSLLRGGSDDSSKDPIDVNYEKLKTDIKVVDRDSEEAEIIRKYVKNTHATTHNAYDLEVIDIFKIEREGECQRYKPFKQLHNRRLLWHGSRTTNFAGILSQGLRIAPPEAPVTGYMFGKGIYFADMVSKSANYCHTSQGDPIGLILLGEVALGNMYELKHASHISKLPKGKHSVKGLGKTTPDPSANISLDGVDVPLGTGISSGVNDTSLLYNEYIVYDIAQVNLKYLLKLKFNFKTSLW
Assay [4] concerns the target T1, PARP10. Briefly: in vitro auto-MARylation, autoradiography. Type of assay: biochemical.

One may read the Kd as the concentration at which binding is half-saturated. For the molecule `NC(=O)c1ccc[n+]([C@@H]2O[C@H](COP(=O)(O)OP(=O)(O)OC[C@H]3O[C@@H](n4cnc5c(N)ncnc54)[C@H](OP(=O)(O)O)[C@@H]3O)[C@@H](O)[C@H]2O)c1` [NADP^+], the “[32P]NADP+ binding to immobilized protein (TLC); also inhibition of auto-MARylat” value on PARP10 [1] is “found that PARP1, PARP2, and PARP10 indeed were able to bind NADP^+ (Fig. 3a)”. Further, the dissociation constant (Kd) on PARP1 [2] was ~39 µM. The “[32P]NADP+ binding to immobilized protein (TLC); also inhibition of auto-PARylat” value on PARP2 is “found that PARP1, PARP2, and PARP10 indeed were able to bind NADP^+ (Fig. 3a)”. In addition, the “recombinant enzyme reaction, product confirmed by mass spectrometry” value at NADK is given as “Formation of NADP^+ by our recombinant protein was confirmed by mass spectrometry”.
With `NC(=O)c1ccc[n+]([C@@H]2O[C@H](COP(=O)([O-])OP(=O)(O)OC[C@H]3O[C@@H](n4cnc5c(N)ncnc54)[C@H](O)[C@@H]3O)[C@@H](O)[C@H]2O)c1` [NAD^+], the “in vitro auto-PARylation, western blot and [32P]NAD+ autoradiography” value on PARP1 [3] was “with NAD^+, PARP1 quickly synthesized PAR chains and autoPARylated itself”. In addition, the “in vitro auto-MARylation, autoradiography” value at PARP10 [4] was “Auto-MARylation of PARP10 was examined by autoradiography”. Further, the “recombinant enzyme reaction, product confirmed by mass spectrometry” value at NADK was “recombinant NADK protein that can transfer phosphate moiety from ATP to NAD^+ to synthesize NADP^+”.
